Data taken from paper PMC9536293, “Targeting extracellular matrix remodeling sensitizes glioblastoma to ionizing radiation” (Neuro-Oncology Advances, 2022).

What was measured:
Glioblastoma (GBM) = test system: Glioblastoma (GBM); design: method as in PMID 32478924; details: added to radiotherapy; GBM patients; on average; cited from earlier work
913-GSCs = assay: Invasion through a Matrigel/HA matrix (XCELLigence); format: cell-based, human; details: shMT1-MMP 913-GSCs; 10 ng/ml
Method: XCELLigence.—Invasion was performed as per the manufacturer’s instructions. Briefly, 10^4 913-GSCs and GBM1 cells were plated on top of uncoated or 0.4% Growth Factor Reduced Matrigel/10 µg/ml hyaluronic acid (HA) coated wells (CIM plate 16). HA was used as it is a major component of brain ECM. Cells were left at room temperature for 30 min to settle and then the plates were placed into an xCELLigence RTCA DP instrument (ACEA Bioscience). Measurements were taken every 15 min for 48 h or up to 6 days. Cell Index (CI) curves normalized to initial seeding were recorded. 3D Decellularized Brain matrix: 10^4 913-GSC cells were embedded in a 3D decellularized mouse brain matrix, derived as in,[16],[17] which retains the architecture and major components of brain ECM. Briefly, Nu/nu mouse brains were cut into small pieces and submerged in decellularizing solution [0.1% (v/v) ammonium hydroxide (Sigma) and 1% (v/v) Triton X-100 (Sigma) in distilled water] for 2 days. After washing in distilled water, the derived ECM was digested with pepsin (1 mg/ml; Sigma) in HCl (0.01 N) for 2 days at room temperature until visible ECM particle disappeared. To make hydrogels, the ECM solution was mixed with 10 × PBS, dilute to the desired final concentration (20 mg/ml) with ice-cold distilled water and adjust to pH7 by NaOH (1 M). […] Invadopodia length was measured and quantified with ImageJ.

In the case of Cn1nnc2c(C(N)=O)ncn2c1=O [TMZ, temozolomide], the “increase in survival compared to radiotherapy alone” value (Glioblastoma (GBM)) is given as 2.5 months.

B1: recombinant MMP2: Recombinant MMP2 purchased from R&D Systems, used at 10 ng/ml (protein, UniProt P08253 110-660, looked up)
72 kDa type IV collagenase: YNFFPRKPKWDKNQITYRIIGYTPDLDPETVDDAFARAFQVWSDVTPLRFSRIHDGEADIMINFGRWEHGDGYPFDGKDGLLAHAFAPGTGVGGDSHFDDDELWTLGEGQVVRVKYGNADGEYCKFPFLFNGKEYNSCTDTGRSDGFLWCSTTYNFEKDGKYGFCPHEALFTMGGNAEGQPCKFPFRFQGTSYDSCTTEGRTDGYRWCGTTEDYDRDKKYGFCPETAMSTVGGNSEGAPCVFPFTFLGNKYESCTSAGRSDGKMWCATTANYDDDRKWGFCPDQGYSLFLVAAHEFGHAMGLEHSQDPGALMAPIYTYTKNFRLSQDDIKGIQELYGASPDIDLGTGPTPTLGPVTPEICKQDIVFDGIAQIRGEIFFFKDRFIWRTVTPRDKPMGPLLVATFWPELPEKIDAVYEAPQEEKAVFFAGNEYWIYSASTLERGYPKPLTSLGLPPDVQRVDAAFNWSKNKKTYIFAGDKFWRYNEVKKKMDPGFPKLIADAWNAIPDNLDAVVDLQGGGHSYFFKGAYYLKLENQSLKSVKFGSIKSDWLGC
In the case of B1, the “invasion of MT1-MMP depleted cells through Matrigel/HA matrix” value (913-GSCs) is reported as “restored the cells invasive capacity to the levels of controls”.
